Results on two compounds are retold here after article PMC8715118, “Assessing potentiation of the (α4)3(β2)2 nicotinic acetylcholine receptor by the allosteric agonist CMPI” (The Journal of Biological Chemistry, 2021).

Structures are written as SMILES. Like-named read-outs stand apart in the source and are kept apart here.

Test [1] concerns the target T1, (α4H116A)3(β2)2 nAChR (Homo sapiens, UniProt P17787+P43681, H142A).
T1 construct: expressed in transfected cells; host or cells: Xenopus laevis oocytes injected with cRNA, 8:1 α4:β2
Briefly: Mechanistic (Monod-Wyman-Changeux two-state model) analysis of current responses, (α4H116A)3(β2)2 nAChR. As to conditions: α4H116A mutant; for Kd: read-out: KR, equilibrium dissociation constant in the resting receptor. The format is cell-based. As for the experimental part:
(§1) Further analysis of electrophysiological data was conducted in the framework of the two-state concerted transition model, adapted from the MWC cyclic model originally used to describe enzyme function ([31], [32], [33]). The raw peak amplitudes of current responses were converted to units of probability of being in the active state (PA).
(§2) The numbers of α4:β2 and α4:α4 binding sites (Nα4:β2 and Nα4:α4) were constrained to 2 and 1, respectively.
(§3) The concentration-response curve for TC-2559 was fitted to the following equation:(3) PA=1/1+L[1+[TC-2559]/KR,TC-2559,α4:β2/1+[TC-2559]/(KR,TC-2559,α4:β2cTC-2559,α4:β2)]^Nα4:β2
(§4) The concentration-response data were analyzed using Equation 3, with the value of L modified to reflect receptor activation by TC-2559, and the affinity and efficacy terms in the equation reflecting the values for CMPI. The number of binding sites for CMPI in Equation 3 was constrained to 1.
(§5) Curve fitting was done using Origin 2020 (OriginLab Corp). The results are reported as best-fit parameter ±SD of the fit. All data are included in the analysis.

Test [2] addresses T2, (α4)3(β2)2 nAChR (Homo sapiens, UniProt P17787+P43681).
T2 construct: expressed in transfected cells; host or cells: Xenopus laevis oocytes injected with cRNA, 8:1 α4:β2
Nature of the test: Mechanistic (Monod-Wyman-Changeux two-state model) analysis of current responses, WT (α4)3(β2)2 nAChR. The note with it: α4:β2 site, WT. It counts as cell-based.
Text: To gain mechanistic insight into receptor activation in the presence of CMPI, we analyzed the currents in the framework of a cyclic two-state (resting and active) allosteric activation model ([31], [32], [33]). In this model, channel opening is mediated by stabilization of the active state by an agonist that, by definition, has higher affinity to the active than resting state.
We commenced by converting the raw amplitudes of current responses to units of probability of being in the active state (PA units).
as §1, §2, §3, §4, §5

The target in test [3] is T2, (α4)3(β2)2 nAChR. Nature of the test: Two-electrode voltage-clamp whole-cell currents, Xenopus oocytes expressing WT (α4)3(β2)2 nAChR. The format is cell-based. How it is done: (§6) Oocytes-positive female Xenopus laevis were purchased from NASCO, and all procedures were performed according to an animal use protocol approved by the Institutional Animals Care and Use Committee of The University of Texas Health Science Center at Tyler. Ovarian lobules were surgically harvested, treated with collagenase type 2, and Stage V and VI oocytes were visually selected and maintained at 18 °C in modified ND96-gentamicin buffer (96 mM NaCl, 2 mM KCl, 1.8 mM CaCl2, 1 mM MgCl2, 5 mM Hepes, and 50 μg/ml gentamicin, pH 7.6).
(§7) pSP64 Poly(A) plasmids with cDNA encoding for human α4 or β2 nAChR subunit were used to prepare cRNA transcripts suitable for oocyte expression. The plasmids were linearized with AseI (hα4) and PvuII (hβ2), then cRNA transcripts were prepared in vitro using mMESSAGE mMACHINE high yield-capped RNA transcription kits (Ambion, Thermo Fisher Scientific), purified on NucAway Spin column (Invitrogen, Thermo Fisher Scientific), and stored at −80 °C until used. Point mutations within the plasmid encoding the α4 nAChR subunit were introduced using QuikChange II Site-Directed Mutagenesis Kit (Agilent Technologies), as described previously ([28]). To generate amino acid substitutions (K64T, E66I, H116V, H116L, and H116A), two custom-designed complementary oligos containing the desired mutation were used (Integrated DNA Technologies). The forward primers were as the following with the codon for mutated amino acids are underlined and nucleotide(s) changes are bolded and italicized:
(§8) The oocytes were injected with 10 to 50 ng of a cRNA mix containing α4 (WT or mutant) and β2 RNAs at ratios of 8:1(α4:β) or 1:8 (α4:β2) to bias expression toward (α4)3(β2)2 or (α4)2(β2)3 nAChRs, respectively. The injection of oocytes with RNAs mixture containing four folds or higher α4 RNA than β2 RNA have been established to express receptor population that is made up of three α4 and two β2 subunits ([9], [12], [28], [43], [44], [45]).
(§9) 24 to 72 h after cRNA injection, Xenopus oocytes were placed in a custom-made recording chamber that is connected to an eight-channel automated perfusion system (Warner Instruments) and perfused with recording buffer (100 mM NaCl, 2 mM KCl, 1 mM CaCl2, 0.8 mM MgCl2, 1 mM EGTA, and 10 mM Hepes, pH 7.5). Unless otherwise specified in figure legends, each recording run included several drug applications (10 s of an agonist with or without CMPI or NS9283) separated by 3 to 4 min buffer wash intervals. Between recording runs, the oocytes were washed with recording buffer for at last 5 min. The oocytes were voltage-clamped at −50 mV using Oocyte Clamp OC-725B (Warner Instruments). The currents were digitized using Digidata 1550A (Axon Instruments, Molecular Devices), and the peak currents were quantified using pCLAMP 10 (Axon Instruments), then normalized and analyzed using Excel 2010 (Microsoft) and SigmaPlot 11.0 (Systat Software). For NS9283 and CMPI potentiation of agonist-induced responses, the peak currents were normalized to current elicited by agonist alone applied within the same recording run. For the effect of coapplication of 1 μM NS9283 or CMPI on agonist concentration-response curve, the peak currents were normalized to current elicited by saturating concentration of agonist applied within the same recording run. […] I0 = 100 for NS9283 and CMPI potentiation of agonist-induced responses and I0 = 0 for agonist concentration-response experiments. The best-fit values for Imax and EC50 ± SD are presented.
A general note: In two-electrode clamp one electrode senses voltage and the other passes current.

Test [4] deals with T1, (α4H116A)3(β2)2 nAChR. Nature of the test: Two-electrode voltage-clamp, oocytes expressing (α4H116A)3(β2)2 nAChR. The format is cell-based. How it is done: as §6, §7, §8, §9
In a further test the target is T3, (α4)2(β2)3 nAChR (Homo sapiens, UniProt P17787+P43681).
T3 construct: expressed in transfected cells; host or cells: Xenopus laevis oocytes injected with cRNA, 1:8 α4:β2
Briefly: Two-electrode voltage-clamp whole-cell currents, Xenopus oocytes expressing (α4)2(β2)3 nAChR. The format is cell-based. As for the experimental part: as §6
pSP64 Poly(A) plasmids with cDNA encoding for human α4 or β2 nAChR subunit were used to prepare cRNA transcripts suitable for oocyte expression. The plasmids were linearized with AseI (hα4) and PvuII (hβ2), then cRNA transcripts were prepared in vitro using mMESSAGE mMACHINE high yield-capped RNA transcription kits (Ambion, Thermo Fisher Scientific), purified on NucAway Spin column (Invitrogen, Thermo Fisher Scientific), and stored at −80 °C until used. […]
Two-electrode voltage-clamp recordings of ACh- or TC-2559 induced responses of Xenopus oocytes were performed, as described in ([28]). […] The currents were digitized using Digidata 1550A (Axon Instruments, Molecular Devices), and the peak currents were quantified using pCLAMP 10 (Axon Instruments), then normalized and analyzed using Excel 2010 (Microsoft) and SigmaPlot 11.0 (Systat Software). […]

The subject of the next test is nAChR. More on the design: method as in PMID 1378342. As to conditions: nonselective, allosteric antagonist; cited from earlier work.

T1 sequence (P43681 27-627 H142A): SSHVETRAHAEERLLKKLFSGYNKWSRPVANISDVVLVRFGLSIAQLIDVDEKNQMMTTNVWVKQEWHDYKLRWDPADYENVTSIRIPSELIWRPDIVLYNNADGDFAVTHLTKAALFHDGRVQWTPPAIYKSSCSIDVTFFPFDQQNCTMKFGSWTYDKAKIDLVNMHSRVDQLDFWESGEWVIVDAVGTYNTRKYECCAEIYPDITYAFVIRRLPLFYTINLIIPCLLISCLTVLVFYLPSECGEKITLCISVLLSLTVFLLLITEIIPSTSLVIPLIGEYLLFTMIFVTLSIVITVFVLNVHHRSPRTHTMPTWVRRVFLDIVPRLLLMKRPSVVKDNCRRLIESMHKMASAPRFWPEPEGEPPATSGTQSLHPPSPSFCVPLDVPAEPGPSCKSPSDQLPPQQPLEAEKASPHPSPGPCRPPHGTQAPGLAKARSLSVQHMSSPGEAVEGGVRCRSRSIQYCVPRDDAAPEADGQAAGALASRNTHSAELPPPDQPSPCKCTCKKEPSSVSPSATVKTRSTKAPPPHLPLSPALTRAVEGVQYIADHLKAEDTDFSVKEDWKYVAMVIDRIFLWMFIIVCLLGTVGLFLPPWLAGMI
T1 sequence (P17787 26-502): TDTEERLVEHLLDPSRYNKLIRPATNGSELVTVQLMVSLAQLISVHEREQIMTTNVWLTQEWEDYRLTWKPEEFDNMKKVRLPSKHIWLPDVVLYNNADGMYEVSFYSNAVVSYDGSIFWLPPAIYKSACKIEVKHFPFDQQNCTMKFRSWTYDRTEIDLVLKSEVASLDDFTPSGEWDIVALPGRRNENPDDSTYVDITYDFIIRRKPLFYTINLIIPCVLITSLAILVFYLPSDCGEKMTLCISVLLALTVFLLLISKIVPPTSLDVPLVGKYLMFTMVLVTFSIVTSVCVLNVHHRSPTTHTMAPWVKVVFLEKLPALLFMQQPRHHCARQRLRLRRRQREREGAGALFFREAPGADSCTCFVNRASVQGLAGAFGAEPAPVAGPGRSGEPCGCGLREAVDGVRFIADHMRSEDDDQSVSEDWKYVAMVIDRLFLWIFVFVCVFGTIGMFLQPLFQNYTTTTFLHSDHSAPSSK
T2 sequence (P43681 27-627): as the sequence (P43681 27-627 H142A) above, with A116H counted along it
T2 sequence (P17787 26-502): as the sequence (P17787 26-502) above
T3 sequence (P43681 27-627): as the sequence (P43681 27-627 H142A) above, with A116H counted along it
T3 sequence (P17787 26-502): as the sequence (P17787 26-502) above

By EC50 is commonly meant the midpoint of the concentration-response curve. In general, Emax refers to the size of the effect at its maximum, as opposed to the concentration needed. As for `CCOc1cncc(/C=C/CCNC)c1` [TC-2559], the “c, ratio of equilibrium dissociation constants active/resting receptor” value at (α4H116A)3(β2)2 nAChR [1] (α4:α4 site) was determined as 0.046 ± 0.003; on (α4H116A)3(β2)2 nAChR [1] (α4:β2 site), 0.337 ± 0.013; at (α4)3(β2)2 nAChR [2] it was 0.371 ± 0.006. The Kd at (α4H116A)3(β2)2 nAChR [1] (α4:α4 site) is 70000 ± 3000 nM; on (α4H116A)3(β2)2 nAChR [1] (α4:β2 site), 210 ± 50 nM; on (α4)3(β2)2 nAChR [2] (read-out: KR, equilibrium dissociation constant in the resting receptor), 330 ± 50 nM. Further, the “I30 μM TC-2559, % of current induced by 1 mM ACh” value at (α4)3(β2)2 nAChR [3] (30 μM TC-2559) was determined as 11 ± 2%; on (α4)2(β2)3 nAChR (30 μM TC-2559), 152 ± 21%. The “Emax, % of current induced by 1 mM ACh” value at (α4)3(β2)2 nAChR [3] (WT) is roughly 10%; at (α4H116A)3(β2)2 nAChR [4], 182 ± 5%. Moreover, the EC50 at (α4)3(β2)2 nAChR [3] (agonist alone, read-out: agonist EC50) was found to be 340 ± 40 nM; on (α4H116A)3(β2)2 nAChR [4] (absence of CMPI, read-out: EC50 of TC-2559) it was 22000 ± 7000 nM; on (α4)2(β2)3 nAChR (agonist alone), 540 ± 20 nM. The maximal response (Emax) at (α4H116A)3(β2)2 nAChR [4] (absence of CMPI, normalized to 100 μM TC-2559) is 115 ± 14%.

Take `CNC1(C)C2CCC(C2)C1(C)C` (stereo not shown) [mecamylamine]: the “outward current, mean amplitude, % of the absolute response to 1 mM ACh” value at (α4)3(β2)2 nAChR [3] (100 μM mecamylamine, holding current) was found to be 2.1 ± 0.5%. Moreover, in the test with nAChR, the IC50s result is on record as “submicromolar range”.
